Test: xn = mol fraction of the nth substance listed
Settings: 100 kPa, Liquid; for viscosity: Capillary tube (Ostwald / Ubbelohde) method; for speed of sound: Frequency=3 MHz, Single path-length method; for mass density: Vibrating tube method

C=CCn1cc[n+](C)c1.O=S(=O)([N-]S(=O)(=O)C(F)(F)F)C(F)(F)F + CCCO
Settings | mass density [kg/m3] | speed of sound [m/s] | viscosity [mPa·s]
293.15 K, x1 = 0.04962 | 915 | 1204.7 | 2.854
293.15 K, x1 = 0.1003 | 1005 | 1193.5 | 3.841
293.15 K, x1 = 0.1995 | 1136 | 1193.5 | 5.727
293.15 K, x1 = 0.2987 | 1228 | 1202.2 | 7.59
293.15 K, x1 = 0.399 | 1297 | 1210.6 | 9.85
293.15 K, x1 = 0.5003 | 1352 | 1221 | 12.17
293.15 K, x1 = 0.6007 | 1394 | 1227.5 | 15.66
293.15 K, x1 = 0.6971 | 1428 | 1234.7 | 19.1
293.15 K, x1 = 0.8024 | 1459 | 1241.9 | 24.1
293.15 K, x1 = 0.8974 | 1483 | 1246.5 | 30.62
293.15 K, x1 = 1 | 1505 | 1251.6 | 41.83
298.15 K, x1 = 0.04962 | – | 1189.4 | –
298.15 K, x1 = 0.1003 | – | 1179 | –
298.15 K, x1 = 0.1995 | – | 1180.2 | –
298.15 K, x1 = 0.2987 | – | 1189.5 | –
298.15 K, x1 = 0.399 | – | 1198.3 | –
298.15 K, x1 = 0.5003 | – | 1208.9 | –
298.15 K, x1 = 0.6007 | – | 1215.6 | –
298.15 K, x1 = 0.6971 | – | 1222.9 | –
298.15 K, x1 = 0.8024 | – | 1230.3 | –
298.15 K, x1 = 0.8974 | – | 1235 | –
298.15 K, x1 = 1 | – | 1240.2 | –
303.15 K, x1 = 0.04962 | 906 | 1174 | 2.215
303.15 K, x1 = 0.1003 | 996 | 1164.6 | 2.899
303.15 K, x1 = 0.1995 | 1126 | 1167 | 4.266
303.15 K, x1 = 0.2987 | 1219 | 1176.9 | 5.633
303.15 K, x1 = 0.399 | 1287 | 1186 | 7.268
303.15 K, x1 = 0.5003 | 1341 | 1197 | 8.94
303.15 K, x1 = 0.6007 | 1384 | 1203.9 | 11.42
303.15 K, x1 = 0.6971 | 1418 | 1211.3 | 13.82
303.15 K, x1 = 0.8024 | 1449 | 1218.8 | 17.21
303.15 K, x1 = 0.8974 | 1472 | 1223.6 | 21.53
303.15 K, x1 = 1 | 1495 | 1228.9 | 28.51
308.15 K, x1 = 0.04962 | 902 | 1158.7 | 1.969
308.15 K, x1 = 0.1003 | 991 | 1150.4 | 2.555
308.15 K, x1 = 0.1995 | 1121 | 1153.9 | 3.74
308.15 K, x1 = 0.2987 | 1214 | 1164.4 | 4.928
308.15 K, x1 = 0.399 | 1282 | 1174 | 6.339
308.15 K, x1 = 0.5003 | 1336 | 1185.2 | 7.782
308.15 K, x1 = 0.6007 | 1379 | 1192.3 | 9.908
308.15 K, x1 = 0.6971 | 1413 | 1199.9 | 11.95
308.15 K, x1 = 0.8024 | 1444 | 1207.5 | 14.8
308.15 K, x1 = 0.8974 | 1467 | 1212.4 | 18.38
308.15 K, x1 = 1 | 1489 | 1217.8 | 23.96
313.15 K, x1 = 0.04962 | 898 | 1143.4 | 1.759
313.15 K, x1 = 0.1003 | 987 | 1136.2 | 2.266
313.15 K, x1 = 0.1995 | 1117 | 1140.9 | 3.302
313.15 K, x1 = 0.2987 | 1209 | 1152 | 4.344
313.15 K, x1 = 0.399 | 1277 | 1162 | 5.574
313.15 K, x1 = 0.5003 | 1331 | 1173.5 | 6.833
313.15 K, x1 = 0.6007 | 1374 | 1180.8 | 8.677
313.15 K, x1 = 0.6971 | 1408 | 1188.6 | 10.42
313.15 K, x1 = 0.8024 | 1439 | 1196.3 | 12.85
313.15 K, x1 = 0.8974 | 1462 | 1201.3 | 15.85
313.15 K, x1 = 1 | 1484 | 1206.8 | 20.41
318.15 K, x1 = 0.04962 | 893 | 1128.2 | 1.577
318.15 K, x1 = 0.1003 | 982 | 1122.1 | 2.021
318.15 K, x1 = 0.1995 | 1112 | 1128 | 2.938
318.15 K, x1 = 0.2987 | 1204 | 1139.7 | 3.858
318.15 K, x1 = 0.399 | 1272 | 1150.1 | 4.937
318.15 K, x1 = 0.5003 | 1326 | 1161.8 | 6.043
318.15 K, x1 = 0.6007 | 1369 | 1169.4 | 7.657
318.15 K, x1 = 0.6971 | 1403 | 1177.4 | 9.174
318.15 K, x1 = 0.8024 | 1434 | 1185.2 | 11.26
318.15 K, x1 = 0.8974 | 1457 | 1190.4 | 13.81
318.15 K, x1 = 1 | 1479 | 1196 | 17.51
323.15 K, x1 = 0.04962 | 889 | 1113 | 1.421
323.15 K, x1 = 0.1003 | 977 | 1108 | 1.813
323.15 K, x1 = 0.1995 | 1107 | 1115.1 | 2.632
323.15 K, x1 = 0.2987 | 1199 | 1127.5 | 3.453
323.15 K, x1 = 0.399 | 1268 | 1138.3 | 4.402
323.15 K, x1 = 0.5003 | 1321 | 1150.3 | 5.384
323.15 K, x1 = 0.6007 | 1364 | 1158.2 | 6.806
323.15 K, x1 = 0.6971 | 1398 | 1166.3 | 8.132
323.15 K, x1 = 0.8024 | 1429 | 1174.3 | 9.945
323.15 K, x1 = 0.8974 | 1452 | 1179.6 | 12.12
323.15 K, x1 = 1 | 1474 | 1185.2 | 15.19
328.15 K, x1 = 0.04962 | 884 | 1097.9 | 1.284
328.15 K, x1 = 0.1003 | 973 | 1094 | 1.635
328.15 K, x1 = 0.1995 | 1102 | 1102.2 | 2.37
328.15 K, x1 = 0.2987 | 1194 | 1115.3 | 3.106
328.15 K, x1 = 0.399 | 1263 | 1126.6 | 3.956
328.15 K, x1 = 0.5003 | 1316 | 1138.8 | 4.83
328.15 K, x1 = 0.6007 | 1359 | 1147 | 6.09
328.15 K, x1 = 0.6971 | 1393 | 1155.3 | 7.262
328.15 K, x1 = 0.8024 | 1424 | 1163.5 | 8.834
328.15 K, x1 = 0.8974 | 1447 | 1168.9 | 10.73
328.15 K, x1 = 1 | 1469 | 1174.7 | 13.23
333.15 K, x1 = 0.04962 | 880 | 1082.7 | 1.166
333.15 K, x1 = 0.1003 | 968 | 1080 | 1.48
333.15 K, x1 = 0.1995 | 1097 | 1089.5 | 2.146
333.15 K, x1 = 0.2987 | 1189 | 1103.1 | 2.812
333.15 K, x1 = 0.399 | 1258 | 1114.9 | 3.573
333.15 K, x1 = 0.5003 | 1312 | 1127.5 | 4.36
333.15 K, x1 = 0.6007 | 1354 | 1135.9 | 5.485
333.15 K, x1 = 0.6971 | 1388 | 1144.5 | 6.518
333.15 K, x1 = 0.8024 | 1419 | 1152.8 | 7.905
333.15 K, x1 = 0.8974 | 1442 | 1158.4 | 9.475
333.15 K, x1 = 1 | 1465 | 1164.2 | 11.62
338.15 K, x1 = 0.04962 | 875 | 1067.5 | 1.061
338.15 K, x1 = 0.1003 | 963 | 1065.9 | 1.347
338.15 K, x1 = 0.1995 | 1092 | 1076.7 | 1.953
338.15 K, x1 = 0.2987 | 1184 | 1091 | 2.558
338.15 K, x1 = 0.399 | 1253 | 1103.4 | 3.252
338.15 K, x1 = 0.5003 | 1307 | 1116.2 | 3.957
338.15 K, x1 = 0.6007 | 1349 | 1124.9 | 4.964
338.15 K, x1 = 0.6971 | 1383 | 1133.8 | 5.889
338.15 K, x1 = 0.8024 | 1414 | 1142.2 | 7.111
338.15 K, x1 = 0.8974 | 1437 | 1147.9 | 8.498
338.15 K, x1 = 1 | 1460 | 1153.8 | 10.28
343.15 K, x1 = 0.04962 | 870 | 1052.3 | 0.971
343.15 K, x1 = 0.1003 | 958 | 1052.2 | 1.23
343.15 K, x1 = 0.1995 | 1088 | 1064.2 | 1.786
343.15 K, x1 = 0.2987 | 1179 | 1078.9 | 2.342
343.15 K, x1 = 0.399 | 1248 | 1092.1 | 2.974
343.15 K, x1 = 0.5003 | 1302 | 1105 | 3.611
343.15 K, x1 = 0.6007 | 1345 | 1114 | 4.521
343.15 K, x1 = 0.6971 | 1378 | 1123.3 | 5.348
343.15 K, x1 = 0.8024 | 1409 | 1131.9 | 6.435
343.15 K, x1 = 0.8974 | 1433 | 1137.8 | 7.661
343.15 K, x1 = 1 | 1455 | 1143.5 | 9.125

Reference: the NIST ThermoML archive (doi:10.1021/acs.jced.8b00537)
